Measured values: patent publication US8906865B2, “Treatment of inflammation and/or endotoxic shock” (ISIS Innovation Limited, priority 2007, dated 2014)
Non-standard residues stand in square brackets, D forms with d. Residues, ends and D or L forms follow the SMILES beside them. *: point of attachment. Sta = CC(C)C[C@H](N)[C@@H](O)CC(=O)O; Isovaleryl = CC(C)CC(=O)*; Cbz = O=C(OCc1ccccc1)*; CH2F = FC*

Assays:
[1] = test system: Murine peritoneal macrophages (PMΦ); assay: Macrophage activation assay: LPS/IFNγ-induced inflammatory cytokine expression (ELISA, Luminex); format: cell-based, mouse; details: for Effect of protease inhibitor on chemerin-mediated suppression of MΦ activation (FIG. 1F): chemerin 1 pM + protease inhibitor 1 h, then LPS/IFNγ 15 h; for Percentage inhibition of LPS/IFNγ-induced inflammatory cytokine expression: RANTES / Percentage inhibition of LPS/IFNγ-induced inflammatory cytokine expression: TNFα: PMΦ, pre-treatment 1 h (0.1 pM-100 nM), then LPS 100 ng/ml + IFNγ 20 ng/ml 15 h, optimal dose (1 pM Chemerin and C15, 100 pM C13 and C19); for Anti-inflammatory activity in the MΦ activation assay: peptides 0.1 pM-100 nM; for Optimal dose (maximal response) for suppression of LPS/IFNγ-induced cytokine expression: macrophage activation assay
Method: Murine peritoneal macrophages (PMθ, also referred to as PMΦ herein) were cultured under various conditions: Untreated; LPS (100 ng/ml) and IFNγ (20 ng/ml) for 15 h; Chemerin (1 pM) pre-treatment for 1 h then LPS/IFNγ for 15 h; Leupeptin (protease inhibitor; 15 mg/ml) and Chemerin (1 pM) for 1 h then LPS/IFNγ for 15 h; or Dexamethasone (positive control; 1 μM pre-treatment for 1 h then LPS/IFNγ for 15 h.
Murine PMθ were cultured under various conditions: Untreated, LPS (100 ng/ml) and IFNγ (20 ng/ml) for 15 h; Chemerin peptides (at a concentration of 1 pM-100 nM) pre-treatment for 1 h then LPS/IFNγ for 15 h. […] Experiments were performed with triplicate determinations for each treatment. Representative data from five independent experiments employing cells from different groups of C57B16/J mice are shown. p<0.01 **; p<0.001 *** relative to LPS/IFNγ treated samples.
With reference to Table 1, anti-inflammatory activity of chemerin-derived peptides—Murine PMΦ were cultured as described for FIG. 1B and were challenged with LPS (100 ng/ml) and IFNγ (20 ng/ml) for 15 h with/without pre-treatment with peptides (0.1 pM-100 nM) for 1 h. […] Peptide sequences are: C11 (P144-A154; […]), C13 (P144-S156; […]), C15 (A140-A154; […]), C19 (A138-S156; […]; Seq ID: No. 37), N19 (E23-K41; […] Seq ID No: 44) and M20 (K86-K105; […] Seq ID No. 45). Control peptides: scrambled C15 (C15-S; […]) and mutant C15 (C15-M; […]; F148A & F153A). Data represent mean percentage inhibition of cytokine production by classically activated macrophages from 4-8 independent experiments as determined by ELISA and Luminex assay.
1 ml 2% BioGEL polyacrylamide beads in sterile Phosphate-Buffered Saline (PBS) were injected intraperitoneally (ip) into C57B1/6J mice. Four days after ip BioGEL administration, mice were sacrificed by the CO, method according to Home Office guidelines. Peritoneal cavities were flushed with 10 ml sterile PBS-2 mM EDTA to harvest BioGEL-evoked/elicited cellular infiltrate. Suspensions of harvested cells were centrifuged at 1000×g for 5 mins at 4° C. The supernatants were discarded and cell pellets were resuspended in 6 mls OptiMEM medium supplemented with 2 mM Glutamine, 50 units/ml Penicillin and 50 μg/ml Streptomycin. Macrophages were quantified following incubation on ice for 5-10 mins with Turk's solution using a haemocytometer. Cell suspensions (2 mls; 1.5×10^6/well) were plated in six-well tissue culture plates (35 mm diameter: Costar, UK) and allowed to adhere for 2 hours at 37° C. in a humidified atmosphere containing 5% CO2, to isolate macrophage populations by adherence. This gave greater than 95% purity assessed by cytospinning, staining of cells with Methylene Blue and Eosin and counting based on cellular morphology. Nonadherent cells (mainly granulocytes) were discarded and wells were washed three times with sterile PBS to remove loosely adherent or dead cells. […] To determine PTX sensitivity and dependency upon proteolysis, cells were pre-incubated with PTX (200 ng/ml) or Leupeptin (15 μg/ml). Additional cells were treated with peptides alone. Supernatants were harvested and stored at −20° C. until use in Enzyme-Linked Immunosorbance Assays (ELISAs) and Luminex assays. Cells were lysed to allow extraction of total RNA by the TRIZOL method. Lysates were stored at −80° C. until RNA extraction following manufacturer's guidelines (Qiagen, RNeasy Mini Prep Kit).
RANTES, Tumour necrosis factor (TNFα) and CCL9 concentrations in cell supernatants were assessed by ELISA. IL-12 p40, IL-10, IL-1β, TNFα, MCP-1 (Monocyte chemoattractant protein-1) and IL-6 levels were determined by Luminex multiplex bead assay (Bio-rad 6 plex assay). Lower limits of detection for ELISAs were 0.1-0.5 ng/ml and 10-50 pg/ml for Luminex assays.

[2] = quoted in the discussion; cited from earlier work
[3] = test system: PMΦ (peritoneal macrophages); assay: Macrophage chemotaxis assay (modified Boyden chamber); format: cell-based, mouse; details: for Macrophage chemotactic activity: migration over 4 h, compared with C140 and RANTES 25 ng/ml; for Concentration of maximal macrophage migration: tested 1 pM-100 nM
Method: PMθ (0.5×10^6) were allowed to migrate towards chemoattractant (Chemerin140 or Chemerin peptides) in the bottom well of a modified Boyden chamber over 4 h. Filters were fixed in 4% formalin, then migrated cell nuclei were stained with DAPI and visualised. Serum free media (SFM) were used as a negative control and the macrophage chemoattractant RANTES (25 ng/ml; 3 nM) as a positive control. The graphs indicate mean Migration Index (Chemoattractant % threshold area/SFM % threshold area)±SEM for each treatment group (n=5-6). p<0.001 ***; p<0.01 **; p<0.05 * relative to SFM treated wells.
PMθ were recruited following a 4 day peritoneal stimulation with BioGEL beads. Peritoneal cavities of male C57B16/J mice were lavaged with 5 ml PBS-2 mM EDTA. Cells were centrifuged and resuspended in RPMI supplemented with 0.5% BSA and 25 mM Hepes. Cells (0.5×10^6) were allowed to migrate towards chemoattractant (C140, C17m or C17m+C140) in the bottom well over 4 h. Filters were fixed in 4% formalin, then nuclei were stained with DAPI and visualised. Serum free media was used as a negative control (−/−). Cells were preincubated with Pertussis toxin (PTX) for 30 mins before the chemotaxis assay. The bar graphs in FIG. 11 show the mean Migration Index±SEM for each treatment group. Each bar represents at least triplicate wells and at least 3 pictures taken per treatment. p<0.001 ***; p<0.01 **; p<0.05 * relative to SFM treated wells unless otherwise stated.
Cell migration was assessed by use of transwell membranes (ChemoTX, 6-mm diameter, 8-μm pore size). Briefly, BioGEL-elicited cells were harvested and placed on transwell membranes (250 000 cells/membrane in RPMI supplemented with 25 mM Hepes and 0.1% bovine serum albumin. Cells were allowed to migrate toward Chemerin peptides (1 pM-100 nM) for 4 h. Signal transduction via G protein-coupled receptors was blocked by preincubating cells with pertussis toxin (PTX, 200 ng/ml, Sigma-Aldrich) for 30 mins before placing cells on transwell membranes. Migrated cells on the underside of membranes were fixed (3% formaldehyde) and stained with DAPI. Migration was quantified as total pixel count of DAPI stained nuclei under the confocal microscope (2 photos/membrane and a minimum of 3 replicate wells per treatment). Images were analyzed using Metamorph Offline software to determine percentage threshold areas (TA) occupied by migrated cells. Migration indices were obtained by dividing treatment TA by serum-free media TA. For secondary chemotaxis assays ChemoTx 3-mm diameter, 8-μm pore membranes were used with 50 000 cells/membrane.

[4] = C13m 100 pM, C15m 1 pM, C17m 1 pM, pre-treatment 1 h then LPS/IFNγ 15 h

| Compound | Effect of protease inhibitor on chemerin-mediated suppression of MΦ activation (FIG. 1F) [1] | Percentage inhibition of LPS/IFNγ-induced inflammatory cytokine expression: RANTES [1] | Percentage inhibition of LPS/IFNγ-induced inflammatory cytokine expression: TNFα [1] | Anti-inflammatory activity in the MΦ activation assay [1] | Macrophage chemotactic activity [3] | other results |
| --- | --- | --- | --- | --- | --- | --- |
| CC(=O)N[C@@H](CC(C)C)C(=O)N[C@@H](CC(C)C)C(=O)N[C@H](C=O)CCCNC(=N)N [Leupeptin, reference compound] | abolished its anti-inflammatory effects |  |  |  |  |  |
| CSCC[C@H](NC=O)C(=O)N[C@@H](CC(C)C)C(=O)N[C@@H](Cc1ccccc1)C(=O)O [fMLP, formyl-Methionyl-Leucyl-Phenylalanine] |  |  |  |  |  | Potency of comparison mediators [2]: 10^−11 M |
| Cl.NCCc1ccc(S(=O)(=O)F)cc1 [Pefabloc, reference compound] | exerted no effect |  |  |  |  |  |
| RALRTK (listed as Mus sp.) [C6, 6 aa peptide removed during prochemerin cleavage, reference compound] |  | 0% | 0% | no detectable anti-inflammatory activity | incapable of inducing MΦ migration |  |
| O=C(NC(Cc1ccccc1)C(=O)NC(Cc1ccccc1)C(=O)CF)OCc1ccccc1 (stereo not drawn) [Z-FF-FMK, reference compound] (Cbz-Phe-Phe-CH2F; configuration not given here) | independent of cathepsin L |  |  |  |  |  |
| AQAGEDPHGYFLPGQFAFS (listed as Mus sp.) [C19] |  | 41% | 21% |  | no chemotactic activity | Optimal dose (maximal response) for suppression of LPS/IFNγ-induced cytokine expression [1]: 100 pM |
| PHGYFLPGQFAFS (listed as Mus sp.) [C13] |  | 32% | 10% |  | little chemotactic activity | Suppression of LPS/IFNγ-induced RANTES secretion (FIG. 2B) [1, 4]: 32%; Suppression of LPS/IFNγ-induced TNFα expression (FIG. 2B) [1, 4]: 10%; Optimal dose (maximal response) for suppression of LPS/IFNγ-induced cytokine expression [1]: 100 pM; Concentration of maximal macrophage migration [3]: 10 nM |
| CC(C)C[C@H](NC(=O)[C@H](Cc1ccccc1)NC(=O)OCc1ccccc1)C(=O)C=O [Z-FL-COCHO, reference compound] | dependent upon calpains and cathepsin S |  |  |  |  |  |
| TNFα |  |  |  |  |  | Potency of comparison mediators [2]: 10^−11 M |
| KPECTIKPNGRRRKCLACIK (listed as Mus sp.) [M20, midstream peptide K86-K105] |  | 0% | 0% | devoid of anti-inflammatory activity |  |  |
| FSRALRTK (listed as Mus sp.) [C8, 8 aa peptide removed during prochemerin cleavage, reference compound] |  | 0% | 0% | no detectable anti-inflammatory activity | incapable of inducing MΦ migration |  |
| PHGYFLPGQFA (listed as Mus sp.) [C11] |  | 0% | 0% | devoid of anti-inflammatory activity | little chemotactic activity | Concentration of maximal macrophage migration [3]: 10 nM |
| CC(C)CC(=O)N[C@H](C(=O)N[C@H](C(=O)N[C@@H](CC(C)C)[C@@H](O)CC(=O)N[C@@H](C)C(=O)N[C@@H](CC(C)C)[C@@H](O)CC(=O)O)C(C)C)C(C)C [Pepstatin A, reference compound] (Isovaleryl-VV[Sta]A[Sta]-OH) | exerted no effect |  |  |  |  |  |
| CCCCC/C=C\C[C@@H](O)/C=C/C=C/C=C\[C@@H](O)CCCC(=O)O [LTB4, leukotriene B4] |  |  |  |  |  | Potency of comparison mediators [2]: 10^−11 M |
| ELSETQRRSLQVALEEFHK (listed as Mus sp.) [N19, N-terminal peptide E23-K41] |  | 0% | 0% | devoid of anti-inflammatory activity |  |  |
| CCCC[C@@H](C=O)NC(=O)[C@H](CC(C)C)NC(=O)OCc1ccccc1 [calpeptin, reference compound] | dependent upon calpains |  |  |  |  |  |
